Broadly, the IC50 is the concentration that inhibits the measured activity by half. The term pIC50 denotes the IC50 on a negative log10 scale, so that one unit is a factor of ten.

Test [1] has as its target T1, AHR (Homo sapiens, UniProt P35869).
T1 construct: U87 MG glioblastoma cells (ATCC #HTB-14) endogenously expressing AHR; endogenous in cells; host or cells: U87 MG glioblastoma cells (ATCC #HTB-14)
T1 sequence (P35869 11-848): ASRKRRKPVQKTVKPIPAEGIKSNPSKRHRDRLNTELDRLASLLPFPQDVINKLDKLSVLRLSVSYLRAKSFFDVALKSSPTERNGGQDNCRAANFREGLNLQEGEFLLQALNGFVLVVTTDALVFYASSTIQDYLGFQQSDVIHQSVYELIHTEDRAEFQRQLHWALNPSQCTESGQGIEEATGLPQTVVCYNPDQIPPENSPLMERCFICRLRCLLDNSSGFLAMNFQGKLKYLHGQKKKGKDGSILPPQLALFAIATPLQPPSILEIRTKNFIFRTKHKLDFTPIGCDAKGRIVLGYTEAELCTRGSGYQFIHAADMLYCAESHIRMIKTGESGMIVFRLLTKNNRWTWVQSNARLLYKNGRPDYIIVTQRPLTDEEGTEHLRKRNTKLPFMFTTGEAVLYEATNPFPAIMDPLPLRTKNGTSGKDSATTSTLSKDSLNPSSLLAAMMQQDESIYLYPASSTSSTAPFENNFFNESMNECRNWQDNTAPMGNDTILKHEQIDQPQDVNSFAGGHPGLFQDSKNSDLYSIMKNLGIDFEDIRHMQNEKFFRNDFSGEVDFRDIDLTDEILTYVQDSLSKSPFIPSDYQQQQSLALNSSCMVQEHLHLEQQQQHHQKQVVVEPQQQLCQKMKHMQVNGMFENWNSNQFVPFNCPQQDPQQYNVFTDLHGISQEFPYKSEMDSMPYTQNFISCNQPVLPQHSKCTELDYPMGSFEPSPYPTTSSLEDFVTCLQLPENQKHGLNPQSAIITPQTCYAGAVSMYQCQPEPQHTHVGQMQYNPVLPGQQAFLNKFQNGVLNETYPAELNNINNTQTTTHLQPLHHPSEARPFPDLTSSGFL
Kind of test: In vitro assay 1: antagonism in human cell line (AHR transactivation, firefly luciferase reporter, kynurenic acid prestimulated). Format: cell-based. As to conditions: AHR Antagonism Human IC50 [M]. In a few lines: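 U87 MG + DRE-firefly/constitutive-Renilla stable reporters; kynurenic acid prestim; dual-luc read; Renilla = tox; normalized vs pos/neg controls (pos: 150 μM KYNA + 5 μM staurosporine).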

Test [2] has as its target T2, AHR (Mus musculus, UniProt P30561).
T2 sequence (P30561 1-848 P471L/N533S/M589L): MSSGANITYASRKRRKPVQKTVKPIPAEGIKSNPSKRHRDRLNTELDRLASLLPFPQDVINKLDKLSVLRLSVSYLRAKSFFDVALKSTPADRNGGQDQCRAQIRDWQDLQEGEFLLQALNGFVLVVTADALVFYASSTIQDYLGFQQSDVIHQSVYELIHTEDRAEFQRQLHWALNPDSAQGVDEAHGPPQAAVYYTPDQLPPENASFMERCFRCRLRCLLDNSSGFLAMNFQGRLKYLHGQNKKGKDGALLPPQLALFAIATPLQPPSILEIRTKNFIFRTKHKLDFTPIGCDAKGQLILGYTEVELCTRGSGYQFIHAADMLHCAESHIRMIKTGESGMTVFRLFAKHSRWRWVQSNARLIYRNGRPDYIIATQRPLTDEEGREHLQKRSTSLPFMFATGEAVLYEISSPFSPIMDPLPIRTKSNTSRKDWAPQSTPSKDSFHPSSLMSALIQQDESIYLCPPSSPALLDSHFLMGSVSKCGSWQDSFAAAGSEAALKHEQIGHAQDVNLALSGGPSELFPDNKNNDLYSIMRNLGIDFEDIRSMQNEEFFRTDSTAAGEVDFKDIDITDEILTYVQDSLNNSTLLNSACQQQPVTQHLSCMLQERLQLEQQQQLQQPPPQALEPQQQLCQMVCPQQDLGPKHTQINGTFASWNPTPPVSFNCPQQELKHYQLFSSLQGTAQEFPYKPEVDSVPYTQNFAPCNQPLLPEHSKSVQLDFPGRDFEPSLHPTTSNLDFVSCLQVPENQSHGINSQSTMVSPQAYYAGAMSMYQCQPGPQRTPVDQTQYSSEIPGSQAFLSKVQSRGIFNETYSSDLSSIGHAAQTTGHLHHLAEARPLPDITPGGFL
Kind of test: In vitro assay 3: antagonism in mouse cell line (AHR transactivation, firefly luciferase reporter, kynurenic acid prestimulated). The format is cell-based. In a few lines: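 Mouse cells stably carrying a DRE-driven AHR-inducible firefly luciferase reporter were prestimulated with the endogenous agonist kynurenic acid before compound addition. Luciferase read by SteadyGlo; cells without kynurenic acid served as full-inhibition control, with normalization to positive and negative controls. Repeat tests reported as mean or median.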
A general note: A reporter such as luciferase makes a cellular process visible.

[3] abbreviates: mouse Hepa 1c1c7 cells, 200 μM kynurenic acid, 20 hours, read-out: AHR Antagonism Mouse IC50.

pIC50: −log10 of the molar value. Read-outs that look alike come from different tables or passages of the source.

`COc1ccc(-c2nc3c4cccc(OC)c4nc(N[C@@H]4CCCCNC4=O)n3n2)cc1` [Example 205, (3R)-3-{[7-methoxy-2-(4-methoxyphenyl)[1,2,4]triazolo[1,5-c]quinazolin-5-yl]amino}azepan-2-one]: it took 2.15e-09 M to reach half-maximal inhibition on AHR [1] (IC50). For the same molecule, on AHR [2] (setting [3]), the pIC50 is 8.12.
In the case of `COc1ccc(-c2nc3c4cccc(C5CC5)c4nc(N[C@@H]4CCCCNC4=O)n3n2)cc1` [Example 206, (3R)-3-{[7-cyclopropyl-2-(4-methoxyphenyl)[1,2,4]triazolo[1,5-c]quinazolin-5-yl]amino}azepan-2-one], at AHR [1], the IC50 turned out to be 9.97e-09 M. Further, the pIC50 at AHR [2] (setting [3]) is 8.10.
On AHR [1], `Cn1cc(-c2nc3c4cccc(C5CC5)c4nc(N[C@@H]4CCCCNC4=O)n3n2)cn1` [Example 207, (3R)-3-{[7-cyclopropyl-2-(1-methyl-1H-pyrazol-4-yl)[1,2,4]triazolo[1,5-c]quinazolin-5-yl]amino}azepan-2-one] registered an IC50 of 1.77e-08 M. At AHR [2] (setting [3]), the pIC50 is 6.62.
The molecule `O=C1NCCCC[C@H]1Nc1nc2c(Br)cccc2c2nc(-c3ccccc3OC(F)(F)F)nn12` [Example 208, (3R)-3-({7-bromo-2-[2-(trifluoromethoxy)phenyl][1,2,4]triazolo[1,5-c]quinazolin-5-yl}amino)azepan-2-one] gave an IC50 against AHR [1] of 1.34e-06 M. Besides, the pIC50 on AHR [2] (setting [3]) was 7.62.
The corresponding values for `Cn1cc(-c2nc3c4cccc(Br)c4nc(N[C@@H]4CCCCNC4=O)n3n2)cn1` [Example 212, (3R)-3-{[7-bromo-2-(1-methyl-1H-pyrazol-4-yl)[1,2,4]triazolo[1,5-c]quinazolin-5-yl]amino}azepan-2-one] are 9.71e-10 M and 8.60.
For `O=C1NCCCC[C@H]1Nc1nc2c(Br)cccc2c2nc(-c3ccncc3)nn12` [Example 216, (3R)-3-{[7-bromo-2-(pyridin-4-yl)[1,2,4]triazolo[1,5-c]quinazolin-5-yl]amino}azepan-2-one], it took 3.35e-09 M to reach half-maximal inhibition against AHR [1] (IC50). Besides, the pIC50 at AHR [2] (setting [3]) was 7.92.
In turn, `COc1ccc(-c2nc3c4cccc(Br)c4nc(N[C@@H]4CCNC4=O)n3n2)cc1` [Example 218, (3R)-3-{[7-bromo-2-(4-methoxyphenyl)[1,2,4]triazolo[1,5-c]quinazolin-5-yl]amino}pyrrolidin-2-one] registered an IC50 on AHR [1] of 8.68e-09 M. Further, the pIC50 at AHR [2] (setting [3]) is 7.53.
In turn, `O=C1NCC[C@H]1Nc1nc2c(Br)cccc2c2nc(-c3ccccc3OC(F)(F)F)nn12` [Example 219, (3R)-3-({7-bromo-2-[2-(trifluoromethoxy)phenyl][1,2,4]triazolo[1,5-c]quinazolin-5-yl}amino)pyrrolidin-2-one] came in with an IC50 on AHR [1] of 8.15e-08 M. Further, the pIC50 at AHR [2] (setting [3]) was 8.15.
On to `O=C1NCCC[C@H]1Nc1nc2c(Br)cccc2c2nc(-c3ccccc3OC(F)(F)F)nn12` [Example 220, (3R)-3-({7-bromo-2-[2-(trifluoromethoxy)phenyl][1,2,4]triazolo[1,5-c]quinazolin-5-yl}amino)piperidin-2-one], for which the IC50 at AHR [1] is 2e-08 M. Further, the pIC50 on AHR [2] (setting [3]) was 8.17.
With `Cn1cc(-c2nc3c4cccc(Br)c4nc(N[C@@H]4CCCNC4=O)n3n2)cn1` [Example 221, (3R)-3-{[7-bromo-2-(1-methyl-1H-pyrazol-4-yl)[1,2,4]triazolo[1,5-c]quinazolin-5-yl]amino}piperidin-2-one], at AHR [1], 3.46e-07 M corresponded to half-maximal inhibition (IC50). Also, the pIC50 at AHR [2] (setting [3]) was 6.19.
The corresponding values for `COc1ccc(-c2nc3c4cccc(Br)c4nc(N[C@@H]4CCCNC4=O)n3n2)cc1` [Example 223, (3R)-3-{[7-bromo-2-(4-methoxyphenyl)[1,2,4]triazolo[1,5-c]quinazolin-5-yl]amino}piperidin-2-one] are 5.32e-08 M and 6.95.
With `COc1ccc(-c2nc3c4ccc(C)cc4nc(N[C@@H]4CCCCNC4=O)n3n2)cc1` [Example 228, (3R)-3-{[2-(4-methoxyphenyl)-8-methyl[1,2,4]triazolo[1,5-c]quinazolin-5-yl]amino}azepan-2-one], at AHR [1], the half-maximal inhibitory concentration (IC50) amounted to 3.01e-08 M. Besides, on AHR [2] (setting [3]), the pIC50 was 7.41.
The corresponding values for `COc1ccc(-c2nc3c4ccc(Br)cc4nc(N[C@@H]4CCCCNC4=O)n3n2)cc1` [Example 229, (3R)-3-{[8-bromo-2-(4-methoxyphenyl)[1,2,4]triazolo[1,5-c]quinazolin-5-yl]amino}azepan-2-one] are 5.82e-08 M and 7.00.
As to `COc1ccc(-c2nc3c4cc(F)ccc4nc(N[C@@H]4CCCCNC4=O)n3n2)cc1` [Example 231, (3R)-3-{[9-fluoro-2-(4-methoxyphenyl)[1,2,4]triazolo[1,5-c]quinazolin-5-yl]amino}azepan-2-one], the IC50 against AHR [1] is 8.14e-10 M. The pIC50 at AHR [2] (setting [3]) was 9.39.
With `Cn1cc(-c2nc3c4cc(F)ccc4nc(N[C@@H]4CCCCNC4=O)n3n2)cn1` [Example 232, (3R)-3-{[9-fluoro-2-(1-methyl-1H-pyrazol-4-yl)[1,2,4]triazolo[1,5-c]quinazolin-5-yl]amino}azepan-2-one], the IC50 on AHR [1] was 8.83e-09 M. Moreover, the pIC50 at AHR [2] (read-out: AHR Antagonism Mouse IC50, mouse Hepa 1c1c7 cells, 200 μM kynurenic acid, 20 hours) is 8.41.
As to `O=C1NCCCC[C@H]1Nc1nc2ccc(F)cc2c2nc(-c3ccccc3F)nn12` [Example 234, (3R)-3-{[9-fluoro-2-(2-fluorophenyl)[1,2,4]triazolo[1,5-c]quinazolin-5-yl]amino}azepan-2-one], on AHR [1], the IC50 came out at 1.7e-09 M. Moreover, the pIC50 on AHR [2] (setting [3]) is 8.85.
At AHR [1], `COc1ccc(-c2nc3c4cc(Cl)ccc4nc(N[C@@H]4CCCCNC4=O)n3n2)cc1` [Example 235, (3R)-3-{[9-chloro-2-(4-methoxyphenyl)[1,2,4]triazolo[1,5-c]quinazolin-5-yl]amino}azepan-2-one] came in with an IC50 of 2.34e-09 M. The pIC50 on AHR [2] (setting [3]) is 8.94.
For the molecule `Cn1cc(-c2nc3c4cc(Cl)ccc4nc(N[C@@H]4CCCCNC4=O)n3n2)cn1` [Example 236, (3R)-3-{[9-chloro-2-(1-methyl-1H-pyrazol-4-yl)[1,2,4]triazolo[1,5-c]quinazolin-5-yl]amino}azepan-2-one], the IC50 at AHR [1] is 2.62e-08 M. Moreover, at AHR [2] (setting [3]), the pIC50 is 7.67.
The corresponding values for `COc1ccc(-c2nc3c4cc(OC)ccc4nc(N[C@@H]4CCCCNC4=O)n3n2)cc1` [Example 237, (3R)-3-{[9-methoxy-2-(4-methoxyphenyl)[1,2,4]triazolo[1,5-c]quinazolin-5-yl]amino}azepan-2-one] are 1.33e-08 M and 7.41.
The corresponding values for `COc1ccc2nc(N[C@@H]3CCCCNC3=O)n3nc(-c4cnn(C)c4)nc3c2c1` [Example 238, (3R)-3-{[9-methoxy-2-(1-methyl-1H-pyrazol-4-yl)[1,2,4]triazolo[1,5-c]quinazolin-5-yl]amino}azepan-2-one] are 1.69e-07 M and 6.46.
The corresponding values for `COc1ccc2nc(N[C@@H]3CCCCNC3=O)n3nc(-c4ccc(F)cc4)nc3c2c1` [Example 239, (3R)-3-{[2-(4-fluorophenyl)-9-methoxy[1,2,4]triazolo[1,5-c]quinazolin-5-yl]amino}azepan-2-one] are 8.92e-09 M and 7.99.

The values above are taken from US20230113037A1 (Bayer Aktiengesellschaft, priority 2019, published 2023).
